Tests used:
Assay in all cases: drug sensitivity score (DSS) from 5-point dose-response viability curve (DSS (area-under-curve based score)); higher = more sensitive (stronger growth inhibition or killing); extreme values may be limits of the assay
Settings in all cases: exposure time: 72 h; concentration range: 5 concentrations over 10,000-fold range
OV90 = system: OV90
How it was run: (§1)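 Drug sensitivity scores were calculated in Breeze software for each cell line and drug pair; higher scores indicate more sensitivity. A score of zero indicates no response. The underlying assay used 384-well plates: drugs were placed by an Echo 550 acoustic dispenser at five concentrations spanning a 10,000-fold range, 1,500 ovarian cancer or normal ovarian cells were added per well, and cells were kept 3 days at 37°C, 5% CO2. Viability was then measured with CellTiter-Glo luminescence on a PHERAstar FS.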

OVCAR8 = system: OVCAR8
How it was run: as §1

HOSE1C = system: HOSE1C
How it was run: as §1

HOSE2C = system: HOSE2C
How it was run: as §1

JHOS2 = system: JHOS2
How it was run: as §1

COV362 = system: COV362
How it was run: as §1

CAOV3 = system: CAOV3
How it was run: as §1

Ovsaho = system: Ovsaho
How it was run: as §1

OVCAR4 = system: OVCAR4
How it was run: as §1

OVCAR5 = system: OVCAR5
How it was run: as §1

Kuramochi = system: Kuramochi
How it was run: as §1

COV318 = system: COV318
How it was run: as §1

SMILES	drug sensitivity score (OV90)	drug sensitivity score (OVCAR8)	drug sensitivity score (HOSE1C)	drug sensitivity score (HOSE2C)	drug sensitivity score (JHOS2)	drug sensitivity score (COV362)	drug sensitivity score (CAOV3)	drug sensitivity score (Ovsaho)	drug sensitivity score (OVCAR4)	drug sensitivity score (OVCAR5)	drug sensitivity score (Kuramochi)	drug sensitivity score (COV318)
Cc1cc(Nc2cc(CN3CCOCC3)c3nc(C)c(Cc4ccc(Cl)cc4F)n3n2)n[nH]1 [Gandotinib]	4.1	7.1	5.9	8.9	3.1	4.6	5.9	6.7	4	5.8	5.9	4.9
Nc1ccn([C@@H]2O[C@H](CO)[C@@H](O)C2(F)F)c(=O)n1 [Gemcitabine]	13.5	23.6	8.2	6.7	12.7	8.1	23.6	3.3	0	15.5	0	3.5
Cn1nccc1Nc1nccc(-c2ccn([C@H](CO)c3ccc(Cl)c(F)c3)c(=O)c2)n1 [Ravoxertinib]	13.6	6.9	0	0	3.7	0.2	6	4.7	0.8	8.8	4.8	0
COc1cc(Nc2c(C#N)cnc3cc(OCCCN4CCN(C)CC4)c(OC)cc23)c(Cl)cc1Cl [Bosutinib]	8.7	6.7	6.8	6.2	7	8.5	8	10.5	5.7	9.4	8.8	2
CC/C(=C(\c1ccccc1)c1ccc(OCCN(C)C)cc1)c1ccccc1 [Tamoxifen]	3.7	0.8	7.9	1.3	1	0.8	0.6	2.9	0.2	3.9	2.2	0.6
CC(C)(C)c1nc(-c2cccc(NS(=O)(=O)c3c(F)cccc3F)c2F)c(-c2ccnc(N)n2)s1 [Dabrafenib]	17.9	0	0	0	1.5	0	0	0	0	0	0	0
C[C@@H](Oc1ccc2[nH]nc(/C=C/c3cnn(CCO)c3)c2c1)c1c(Cl)cncc1Cl	5.3	3.4	8.5	22.7	2	2.2	6.9	4.9	2.5	5.5	1.8	2.3
CCc1c2c(nc3ccc(O)cc13)-c1cc3c(c(=O)n1C2)COC(=O)[C@]3(O)CC [SN-38]	24.6	28.6	37.3	36.4	25.2	16.8	37.9	21.2	14.4	24	14.6	13.8
Cn1cc(-c2cnn3c(N)c(Br)c([C@@H]4CCCNC4)nc23)cn1 [MK-8776]	1.1	1	5.1	5.1	0	0	1.3	0	0	0.4	0	0
CCCCCCCCCCCCCCCCOP(=O)([O-])OCC[N+](C)(C)C [Miltefosine]	4.1	5	5.5	5.9	11.5	3.4	12.8	7.3	3.5	9.1	5.8	4.7
CC1=C2C[C@H]3[C@@H](CC[C@@H]4C[C@H](NS(C)(=O)=O)CC[C@@]43C)[C@@H]2CC[C@@]2(C1)O[C@@H]1C[C@H](C)CN[C@H]1[C@H]2C [Saridegib]	0	0.4	2.3	0.1	0	0	0.5	0	0	0	0	0
Cc1nn(C)c(COc2ccc(N3CCN(S(=O)(=O)N(C)C)CC3)cc2)c1-c1cccc2c(CCCOc3cccc4ccccc34)c(C(=O)O)n(CCN3CCOCC3)c12	5.7	7.4	13.7	13.7	6.3	2.8	4.9	8.6	5.1	5.2	7.8	5.4
O=C(NOC[C@H](O)CO)c1ccc(F)c(F)c1Nc1ccc(I)cc1F	21.6	1.7	0	0.4	3.2	2.4	11.7	13.5	2.1	9.7	5.2	0
O=C(CCCCCCNC(=O)c1cnc(N(c2ccccc2)c2ccccc2)nc1)NO [Rocilinostat]	6	7.1	9.3	5.7	1.6	0	5.2	1.9	1.4	6.9	3.3	2.7
CCn1c(-c2nonc2N)nc2c(C#CC(C)(C)O)ncc(OC[C@H]3CCCNC3)c21	0.6	0	1.4	3.7	0	1.3	4.3	0.5	0	0	2.9	0
O=c1ncn2nc(Sc3ccc(F)cc3F)ccc2c1-c1c(Cl)cccc1Cl [Neflamapimod]	0.4	0.9	0.1	0	0	0	0	0	0.4	0.8	2	0.8

SMILES	drug sensitivity score (OV90)	drug sensitivity score (OVCAR8)	drug sensitivity score (HOSE1C)	drug sensitivity score (HOSE2C)	drug sensitivity score (JHOS2)	drug sensitivity score (COV362)	drug sensitivity score (CAOV3)	drug sensitivity score (Ovsaho)	drug sensitivity score (OVCAR4)	drug sensitivity score (OVCAR5)	drug sensitivity score (Kuramochi)	drug sensitivity score (COV318)
Cc1ccc(-n2nc(C(C)(C)C)cc2NC(=O)Nc2ccc(OCCN3CCOCC3)c3ccccc23)cc1 [Doramapimod]	1.5	1.8	5	2.9	0	0	0	2.9	2.4	1.1	0.6	0
Cc1noc2c1-c1ccccc1C(c1ccc(Cl)cc1)=N[C@H]2CC(N)=O [CPI-0610]	7.6	6.4	9.3	9.9	5	5.9	8.5	12.6	5	9.3	13	4.1
C=CC(=O)Nc1cccc(Nc2nc(Nc3ccc(N4CCN(C(C)=O)CC4)cc3OC)ncc2C(F)(F)F)c1 [Rociletinib]	5.5	5.8	4.2	6.8	2.9	3.3	7.9	6.9	3	7.5	3.6	2.6
O=C(Nc1cc(Oc2cc(F)c(NC(=O)C3(C(=O)Nc4ccc(F)cc4)CC3)cc2F)ccn1)C1CC1 [Altiratinib]	0	6	4.2	3.4	4.3	3	2.7	3.6	3.3	6.6	4.3	1.7
CONC(=O)c1ccccc1Nc1cc(Nc2cc(C)nn2C(C)C)ncc1Cl	0	0	0	0	0.1	0.2	0	3.1	0.1	0.3	1.4	0
CNC(=O)c1cccc2cc(Oc3ccnc4cc(OCC5(N)CC5)c(OC)cc34)ccc12 [Lucitanib]	1.1	2.3	1.5	5.9	0.4	0	0	0.8	2.4	1.6	0.1	2.3
CCOc1ccn(-c2ccc(F)cc2)c(=O)c1C(=O)Nc1ccc(Oc2ccnc(N)c2Cl)c(F)c1	0	0	0	0	0	0	0	0	0	0	0	0
CCn1cc(-c2ccnc3[nH]c(-c4cccc(CN(C)C)c4)cc23)c(-c2ccc(NC(=O)N(C)C)cc2)n1	0.3	1.9	1.3	1.4	0	0.2	17	1.2	2.9	2	0.4	0.2
CCOc1cc2ncc(C#N)c(Nc3ccc(OCc4ccccn4)c(Cl)c3)c2cc1NC(=O)/C=C/CN(C)C [Neratinib]	0	4.8	0	1	1.4	0	5.3	0	0.6	2.9	0.4	0
CC1(C)CNc2cc(NC(=O)c3cccnc3NCc3ccncc3)ccc21 [Motesanib]	0.3	0	0	0	0	0	0	3.5	0	0	2.1	1.1
Cn1cc(-c2ccc(F)c(C(F)(F)F)c2)nc1C1CCN(c2ncnc3[nH]ncc23)CC1	0	0.1	1.9	3.2	0	0	0	0	0	0	0	0
Cn1ncc(Cl)c1-c1cc(C(=O)N[C@H](CN)Cc2ccc(F)c(F)c2)oc1Cl [Uprosertib]	0.7	0	3.2	2.1	0	0	0.9	0.6	0	0.9	1	0.4
COC[C@H](NC(=O)c1cnc(C)s1)C(=O)N[C@@H](COC)C(=O)N[C@@H](Cc1ccccc1)C(=O)[C@@]1(C)CO1 [Oprozomib]	21.4	12.6	18.8	17.1	23.9	15.1	21.7	16.1	15.2	15.4	9.6	24.5
O=C(O)c1ccc(CN2CCC(CN[C@@H]3C[C@H]3c3ccccc3)CC2)cc1	0	0	0	0	0	0	0	0	0.3	0	0	0
Cc1cn(-c2cc(NC(=O)c3ccc(C)c(Nc4nccc(-c5cnccn5)n4)c3)cc(C(F)(F)F)c2)cn1 [Radotinib]	1.3	0	0	0	0	0	0	0	0	0	0.9	0
